Values of other authors as cited in patent US8679552B2, “Acne vulgaris treatment regimen” (priority 2008, dated 2014).

How the values were obtained:
5 alpha-reductase [1] = test system: 5 alpha-reductase
comedones = conditions: topical
type-1 5 alpha-reductase = molecular target: T1, type-1 5 alpha-reductase (Homo sapiens, UniProt P18405)
T1 sequence (P18405 1-259): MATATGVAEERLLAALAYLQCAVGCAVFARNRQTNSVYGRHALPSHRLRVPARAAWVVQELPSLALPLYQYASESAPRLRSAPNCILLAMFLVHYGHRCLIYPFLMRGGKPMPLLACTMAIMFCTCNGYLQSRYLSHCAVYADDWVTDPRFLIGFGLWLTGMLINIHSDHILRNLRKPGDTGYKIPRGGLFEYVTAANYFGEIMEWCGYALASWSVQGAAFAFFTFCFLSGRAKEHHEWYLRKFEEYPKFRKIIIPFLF

skin irritation = conditions: concentrations of 5%, three to four week period
[2] = test system: 17-beta-hydroxysteroid dehydrogenase
5 alpha-reductase [3] = test system: 5 alpha-reductase; remark: listed apart in the source

## O=C(O)CCCCCCCC(=O)O [Azelaic acid]
5 alpha-reductase [1]
  concentration at which effective / potent 5 alpha-reductase inhibitor: ≥ 0.2 milliMolar
  concentration that is completely inhibitory of 5 alpha-reductase: 3 milliMolar

## CC1=C(/C=C/C(C)=C/C=C/C(C)=C/C=O)C(C)(C)CCC1 [Retinaldehyde]
comedones; concentration of 0.1%
  effectiveness at preventing comedones: as effective at preventing comedones as other topical vitamin A products
gram-positive bacteria
  in vitro antibacterial activity against gram-positive bacteria: significant in vitro antibacterial activity

## Cc1ncc(CO)c(CO)c1O.Cl [Vitamin B6, Pyridoxine hydrochloride]
5 alpha-reductase [1]; Vitamin B6 (0.025%) added to zinc sulfate (1.5 to 3 milliMolar/liter)
  increase in the inhibition of 5 alpha-reductase: two fold increase

## [Zn+2] [Zinc cation]
5 alpha-reductase [1]; high concentrations
  inhibition of 5 alpha-reductase enzyme activity at high concentrations: completely inhibiting the enzyme activity

## O=C1c2ccccc2C(=O)c2c1ccc(O)c2O [alizarin]
type-1 5 alpha-reductase
  inhibition of type-1 5 alpha-reductase: potent inhibitors

## Oc1ccc2c(O)c3ccccc3cc2c1O [anthrarobin]
type-1 5 alpha-reductase
  inhibition of type-1 5 alpha-reductase: potent inhibitors

## O=c1cc(-c2ccccc2)oc2cc(O)c(O)c(O)c12 [baicalein]
type-1 5 alpha-reductase
  inhibition of type-1 5 alpha-reductase: potent inhibitors

## O=C(/C=C/c1ccc(O)c(O)c1)OCCc1ccccc1 [caffeic acid phenethyl ester]
type-1 5 alpha-reductase
  inhibition of type-1 5 alpha-reductase: potent inhibitors

## CC(C)(CO)[C@@H](O)C(=O)NCCCO [dexpanthenol]
Skin irritation
  symptoms of skin irritation (dryness, roughness, scaling, pruritis, erythema, erosion/fissures): considerably improves

## O=C1OC[C@H](Cc2cccc(O)c2)[C@H]1Cc1cccc(O)c1 [enterolactone]
5 alpha-reductase [1]
  5 alpha-reductase inhibitory activity: most potent inhibitor

## O=c1c(O)c(-c2ccc(O)c(O)c2)oc2cc(O)ccc12 [fisetin]
type-1 5 alpha-reductase
  inhibition of type-1 5 alpha-reductase: potent inhibitors

## CC1(C)[C@@H](O)CC[C@]2(C)[C@H]3C(=O)C=C4[C@@H]5C[C@@](C)(C(=O)O)CC[C@]5(C)CC[C@@]4(C)[C@]3(C)CC[C@@H]12 [glycyrrhetinic acid]
[2]
  concentration which suppresses 17-beta-hydroxysteroid dehydrogenase activity: ≥ 4 microMolar

## CCCCCCCCCCCCOC(=O)c1cc(O)c(O)c(O)c1 [lauryl gallate]
type-1 5 alpha-reductase
  inhibition of type-1 5 alpha-reductase: potent inhibitors

## CC(Cc1ccc(O)c(O)c1)C(C)Cc1ccc(O)c(O)c1 (stereo not drawn) [nordihydroguaiaretic acid]
type-1 5 alpha-reductase
  inhibition of type-1 5 alpha-reductase: potent inhibitors

## CCCCCCCCOC(=O)c1cc(O)c(O)c(O)c1 [octyl gallate]
type-1 5 alpha-reductase
  inhibition of type-1 5 alpha-reductase: potent inhibitors

## O=c1c(O)c(-c2ccc(O)c(O)c2)oc2cc(O)cc(O)c12 [quercitin]
type-1 5 alpha-reductase
  inhibition of type-1 5 alpha-reductase: potent inhibitors

## O=C(O)c1ccccc1O [salicylic acid, Salicylic acid]
comedones; concentrations of 0.5% to 2.0%
  comedolytic effect: moderately comedolytic

## epigallocatechin 3-gallate [EGCG]
5 alpha-reductase [1]; cell-free
  inhibition of 5 alpha-reductase in cell-free assay systems: potent inhibition
5 alpha-reductase [3]
  inhibition of 5 alpha-reductase in whole-cell assay systems: not in whole-cell assay systems
